Columns and labels:
splenocytes = assay: Immunotoxicity--Multi-dose: total spleen cell counts (Coulter Counter); assay type: in vivo, mice
Protocol: The immunotoxicological potential of KCPBL was evaluated in this experiment in which the study drug was administered to CD-1 mice for fourteen days (100 or 1000 mg/kg/day), either perorally (by gavage) or intravenously (tail vein). On the fifteenth day, the mice were weighed and sacrificed. The spleen, lungs, liver, kidneys and thymus were removed from each animal, fixed in formalin and histopathologically evaluated. In addition, a differential white blood cell count was obtained for a peripheral blood sample as well as the following tests performed: spleen cell counts (performed with Coulter Counter) and lymphocyte stimulation assays using PHA, CON-A and PWM techniques.
The study incorporated five treatment groups into its design: group 1, sham intravenous control; group 2, 100 mg/kg/day perorally; group 3, 1000 mg/kg/day intravenously; group 4, […], and, group 5, 100 mg/kg/day intravenously. Mice were administered KCPBL daily for a total of fourteen days via the oral (0.2 ml of a 147.5 mg/ml solution or a 29.5 mg/ml solution by gavage) and intravenous route (0.2 ml of 147.5 mg/ml solution or a 29.5 mg/ml solution by tail vein) to achieve a dose of 100 or 1000 mg/kg, respectively. The test dose was prepared fresh daily and dissolved in sterile non-pyrogenic saline. On the fifteenth day the mice were weighed, sacrificed, and the spleens, lungs, livers, kidneys and thymuses removed. These organs were weighed and, except for the spleens, the formalin-fixed organs were analyzed by a veterinary pathologist. Only two randomly-selected sets of animal organs per treatment group were histopathologically evaluated since the remaining three animals were used to isolate splenic lymphocytes for use in cellular immunoassays.
A leukocyte differential was obtained on peripheral blood samples and spleen cell counts (performed with Coulter Counter), and an IL-2 induction assessment as well as standard lymphocyte stimulation assays using PHA, CON-A and PWM conducted.

splenic lymphocytes = assay: Immunomodulation panel: lymphocyte blastogenesis (Con-A, PHA, PWM); assay type: in vivo, C57BL/6J mice
Protocol: (§1) Daily intraperitoneal injections of KCPBL were administered to normal animals and immunological responsiveness to mitogens and specific antigen evaluated.
(§2) Doses and schedule--Doses were selected to bracket the range generally known to be immunostimulatory in past experiments, 1, 10, and […] daily for four days.
(§3) As an assessment of immunopathology in the above screening test panel, the cellularity of the spleen was evaluated by determination of the total number of splenocytes harvested. Humoral-mediated immunity was measured by enumerating IgM plaque-forming cells to the T-dependent antigen sheep erythrocytes. Cell-mediated immunity was evaluated as described above by determination of the ability of the splenocytes to produce the lymphokine interleukin-2 in response to stimulation by the mitogen concanavalin-A. Another measurement of cell-mediated immunity was the responsiveness of the splenic lymphocytes to the mitogens concanavalin-A (Con-A); phytohemagglutinin (PHA) and pokeweed mitogen (PWM) in the lymphocyte blastogenesis assay. In the latter test, the activation and proliferation of the lymphocytes to the mitogens represents the capability of the cells to sequentially pass from G0 to G1 and the S phse of the cell cycle. The responsiveness of the cells was measured by the uptake of radiolabeled 14C-thymidine.

[1] = tested on: IgM plaque-forming cells to sheep erythrocytes; assay: Immunomodulation panel: IgM plaque-forming response to SRBC; assay type: in vivo, C57BL/6J mice; parameters: Anti-SRBC Plaque Forming Cells: unit not given here
Protocol: as §1
Inbred C57BL/6J mice were obtained from Jackson Laboratories, Bar Harbor, Me. The animals were held for one week before use in an experiment. Prior to commencement of a study, the animals were placed into groups and weighed.
as §2
Immunization--All animals except for sham controls were injected with 0.5 ml of a 2% suspension of sheep erythrocyte on day zero. This occurred two days following any pretreatment and the day before the initiation of study drug administration.
Sacrifice--Animals were sacrificed by cervical dislocation on day five. The spleens were surgically removed and the following immunological evaluations conducted.
as §3

CD-1 male mice [2] = assay: Oral Toxicity, single high dose in mice; assay type: in vivo; settings: 5000 mg/kg p.o., 14 days
Protocol: The objective of this experiment was to observe the clinical effects associated with the peroral administration of a single high dose of KCPBL to mice.
The test animals were CD-1 male mice.
Nine animals constituted the active peroral treatment group; eight animals were used in the vehicle control group.
Each mouse received a single 0.2 ml peroral (p.o.) dose using a 1.0 cc syringe fitted with a curved gavage needle.
Survival statistics were determined after the fourteenth day. All surviving mice were sacrificed on the fifteenth day, selected organs removed and weighed on a AE 100 Mettler balance and then fixed in formalin for histopathologic examination.

CD-1 male mice [3] = assay: Parenteral Toxicity--LD50 in mice
Protocol: (§4) The objective of this experiment was to determine the LD50 value for KCPBL when administered intraperitoneally to mice in a standard LD50 test procedure.
(§5) The test animals were CD-1 male mice. The mean weight for these animals on the day of test product administration was 25.5 grams.
(§6) KCPBL (lot 101, consisting of 42% stereoisomer A and 58% stereoisomer B) was dissolved in pyrogen-free normal (0.85%) saline (NaCl).
(§7) Five animals constituted each treatment group.
(§8) Each mouse received 0.5 ml by intraperitoneal (i.p.) injection, using a 3.0 cc syringe fitted with a 23-gauge needle.
(§9) All mice were observed daily for signs, symptoms and survival for three days. Survival statistics were determined after third day.
(§10) Two mice were randomly selected from the control and high dose test group for sacrifice and selection of tissues for histopatholigic examination.
(§11) LD50 was calculated by the method of Spearman & Karber: Basic Exercises in Immunochemistry, A. Nowatny (Ed); Pg 184-85, Springer-Verlag,N.J.

[4] = Parenteral Toxicity--LD50 in mice; settings: mouse, in vivo, ip
Protocol: as §4, §5, §6, §7, §8, §9, §10, §11

With `O=C1CCC(C2(O)C(=O)OC3C(O)COC32O)C1` (centres unmarked) [KCPBL] the “Total Splenocytes” value (splenocytes; 100 mg/kg IV (group 5)) was 4.03 ± 0.33 × 10^7 Cells, the “Total Splenocytes” value (splenocytes; 100 mg/kg P.O. (group 4)) was 4.15 ± 0.18 × 10^7 Cells and the “Total Splenocytes” value (splenocytes; 1000 mg/kg IV (group 3)) was 3.12 ± 0.67 × 10^7 Cells. For the same compound, the “Total Splenocytes” value (splenocytes; 1000 mg/kg P.O. (group 2)) was 3.73 ± 0.30 × 10^7 Cells, the “total spleen cell counts, significance” value (splenocytes; treated vs control) was “not statistically significantly different” and the “Lymphocyte Blastogenesis, PHA” value (splenic lymphocytes; 1.0 mg/kg i.p.) was 5176 ± 1185 Counts per minute. For the same compound, the “Lymphocyte Blastogenesis, PWM” value (splenic lymphocytes; 1.0 mg/kg i.p.) was 1977 ± 540 Counts per minute, the “Lymphocyte Blastogenesis, RPMI” value (splenic lymphocytes; 1.0 mg/kg i.p.) was 95 ± 66 Counts per minute and the “Lymphocyte Blastogenesis, Con-A” value (splenic lymphocytes; 10 mg/kg i.p.) was 10074 ± 1881 Counts per minute. The “Lymphocyte Blastogenesis, PHA” value (splenic lymphocytes; 10 mg/kg i.p.) was 5590 ± 864 Counts per minute, the “Lymphocyte Blastogenesis, RPMI” value (splenic lymphocytes; 10 mg/kg i.p.) was 95 ± 54 Counts per minute and the “reactivity of splenocytes to PHA” value (splenic lymphocytes; drug-treated animals) was “reactivity to PHA was not affected”. For the same compound, the “responsiveness of splenocytes to Con-A” value (splenic lymphocytes; drug-treated animals) was “slightly more responsive to Con-A”, the “responsiveness of splenocytes to PWM” value (splenic lymphocytes; drug-treated animals) was “significant increases in the responsiveness” and the “PFC increase, significance” value ([1]; 1 mg/kg) was “values higher than the control group but the difference was not statistically significant”. For the same compound, the “Anti-SRBC Plaque Forming Cells” value ([1]; 1.0 mg/kg i.p.) was 192.8 ± 59, the “PFC increase, significance” value ([1]; 100 and 10 mg/kg) was “A significant increase in PFC” and the deaths (CD-1 male mice [2]) was “One mouse in the KCPBL group died on the 12th day”. The deaths (CD-1 male mice [2]; listed as BL-012) was “Only one animal died”, the deaths (CD-1 male mice [3]; highest dose level, i.p.) was “Only two animals died” and the “organ histopathology (lungs, liver, kidneys)” value (CD-1 male mice [3]; mouse, in vivo) was “no significant deviations in organ histopathology”. The “overt signs or symptoms of toxic response” value (CD-1 male mice [3]; mouse, in vivo, ip) was “no overt signs or symptoms observed” and the LD50 at 72 h [4] was roughly 8570 mg/kg.
